Laboratory results: patent publication US11491232B2, “Lactuloside compounds and preparation and use thereof” (Fruithy Holdings Limited, priority 2017, dated 2022)
Read-outs that look alike come from different tables or passages of the source.

Assays:
[1] = system: ulcerative colitis models of Wistar rat induced by enema with trinitrobenzenesulfonic acid (TNBS); assay: Pharmacodynamic effect of intragastric administration in ulcerative colitis models of Wistar rat induced by TNBS enema; type: in vivo; conditions: Wistar rats; for colon coefficient on Day 8 after modeling compared with the model control group / histopathological score of colon on Day 8 after modeling compared with the model control group / body weight change (increase) on Day 8 after modeling as compared to the model group: intragastric qd × 7, Compound 1 1.91 mg/kg; for colon coefficient on Day 8 after modeling compared with the model control group: prednisolone 1 mg/kg (FIG. 6); for histopathological score of colon on Day 8 after modeling compared with the model control group: prednisolone 1 mg/kg (FIG. 7); for body weight change (increase) on Day 8 after modeling as compared to the model group: prednisolone 1 mg/kg, only Compound 1 vs model significant (FIG. 5)
Method: Comparison research among therapeutic effects of Compound 1 and a commercial formulation of prednisolone (prednisolone tablet, produced by Wuhan Yuancheng Co-Creation Technology Co., Ltd.) on ulcerative colitis models of Wistar rats after intragastric administration was carried out to further evaluate the improvement in main therapeutic effect indexes of the intragastric perfusion therapy of Compound 1 and compare it with that of treatment group with equivalent moles of a commercial formulation of prednisolone, thereby providing pharmacodynamic support for further development of Compound 1.
According to the experiment, 40 male Wistar rats (180-220 grams) were purchased, and randomly divided into four groups (i.e., physiological saline control group, model control group, prednisolone group and Compound 1 group), and there were 10 animals in each group. Except the physiological saline control group, ulcerative colitis animal models were produced by once enema administration of a mixed solution of 2.5% TNBS-50% ethanol (containing 80 mg/kg TNBS) to experiment animals in other three groups in an amount of 3.2 ml/kg. For the physiological control group, physiological saline was once administered by enema in an amount of 3.2 ml/kg. At 24 h after the modeling administration, the corresponding solvent control or therapeutic drugs were administered by enema depending on animal groups (qd×7d (one dose per day, for 7 days)), and detailed grouping and administration information is as shown in Table 14 below.
During the investigation, the main indexes to be observed include: death of animals, clinical observation, body weight, colon coefficient, histopathological examination of animals, and so on. For each experiment group, on Day 8 after modeling, animals were sacrificed. Colon tissues were collected to calculate the colon coefficient (colon coefficient=colon weight (g)/animal body weight (g) * 100%).

[2] = Systemic pharmacokinetics (plasma) after oral administration to SD rats; type: in vivo
Method: (§2) For the experiment animals of Group 1, Group 2 and Group 3, at each time point of 30 min, 1 h, 2 h, 3 h, 4 h, 5 h, 6 h, 8 h, and 10 h after the administration, 4 animals were randomly selected and sacrificed. The blood samples were collected, and the contents in the stomach and various segments of the intestine tract (the first half segment of the small intestine, the last half segment of the small intestine, the first third segment of the colon (including cecum), and the last two thirds segment of the colon) were weighed. […] 4 animals of Group 4 were sacrificed at the time point of 10 h. The blood samples and the contents in various segments of the gastrointestinal tract were collected as blank control.

colon flora = assay: Stability in the presence of colon flora (content in colon of rat); type: in vitro ADME, SD rat; conditions: male, Sprague-Dawley (SD), rat, 1 h, pH 6.8
Method: A phosphate buffer solution with a pH of 7.0 was formulated, and then CO2 was introduced to the solution to adjust the pH to 6.8. Then, the content in colon of a male SD rat (body weight: 180-220 g) was placed in a water bath at 37° C., and added into the phosphate buffer solution with a pH of 6.8 as prepared above under the protection of N2 to a concentration of 20% (w/v). The buffer solution was kept in an oxygen-free environment. Then, the test Compound 17 was added to the buffer solution, and the solution was stirred uniformly.
Supernatant was analyzed with HPLC, where the amount of each ingredient was calculated by normalization.
Note: in the above table, “T14.148 (%)” represents the percentage of peak area of the material with a retention time of 14.148 min “T14.713 (%)” represents the percentage of peak area of the material with a retention time of 14.713 min. “T16.392 (%)” represents the percentage of peak area of the material with a retention time of 16.392 min. “T22.624 (%)” represents the percentage of peak area of the material with a retention time of 22.624 min.
(§1) Other typical example compounds were tested for stability according to the above method, and the test results are shown in Table 8 below.

[3] = rat, in vivo; for Concentration of prednisolone in the content, The first half segment of Small intestine / Concentration of prednisolone in the content, The last half segment of Small intestine: male, Sprague-Dawley (SD)
Method: as §2

[4] = Test on stability in mediums in vitro (buffer solutions with different pH, simulated intestinal fluid, simulated gastric fluid); type: physicochemical
Method: At 37° C., Compound 17 was incubated in different mediums (buffer solutions with different pH, a simulated intestinal fluid containing pancreatin, and simulated gastric fluid containing pepsin).
as §1

[5] = intragastric administration, FIG. 3
[6] = Simulated intestinal fluid (containing pancreatin) (pH 6.8) (8 h)

SMILES: C[C@]12C=CC(=O)C=C1CC[C@@H]1[C@@H]2[C@@H](O)C[C@@]2(C)[C@H]1CC[C@]2(O)C(=O)COC1(CO)O[C@H](CO)[C@@H](O[C@@H]2O[C@H](CO)[C@H](O)[C@H](O)[C@H]2O)[C@@H]1O (stereo partly drawn) [Compound 1, (11β)-11,17-dihydroxyl-21-{[4-O-(β-D-galactopyranosyl)-D-fructofuranosyl]oxy}pregna-1,4-diene-3,20-dione]
- day after modeling on which the body weight began to rise ([1]; TNBS model, intragastric qd × 7, 1.91 mg/kg): 4 days
- colon coefficient on Day 8 after modeling compared with the model control group [1]: significantly lower than that for the model control group (p<0.05)
- histopathological score of colon on Day 8 after modeling compared with the model control group [1]: significantly lower than that for the model control group (p<0.05)
- body weight change (increase) on Day 8 after modeling as compared to the model group [1]: statistically significant
- plasma prednisolone Cmax as compared to free prednisolone group [2, 5]: very low
- plasma prednisolone time to peak as compared to free prednisolone group [2, 5]: significantly delayed
- concentration at 0.5 h ([2]; male, Sprague-Dawley, rat, plasma, oral, 9.55 mg/kg intragastric, 0.5 h (only time point with detection), read-out: concentration of Compound 1 in the rat plasma): 10.4 ng/mL
- Percentage of the example compound remaining (Composition, %) (colon flora): 22.1%
- Percentage of the released active drug (prednisolone, dexamethasone, budesonide, apremilast or prucalopride) (Composition, %) (colon flora): 39.7%
- passage through the gastrointestinal tract of a mammal (absorption and hydrolysis) [3]: without being absorbed significantly by the gastrointestinal tract and hydrolyzed significantly by endogenous enzymes of a mammal host
- factor of increase of maximum concentrations (Cmax) of local prednisolone in the cecum and colon sites as compared to prednisolone group ([3]; po): 65-360
- total exposure (AUC) of local prednisolone in the cecum and colon sites compared with prednisolone group ([3]; po): much higher than the prednisolone (original form) group
- Percentage of the example compound remaining (Composition, %) [4, 6]: 99.0%
- Percentage of the released active drug (prednisolone, dexamethasone, budesonide, apremilast or prucalopride) (Composition, %) [4, 6]: 0.2%
- Percentage of the example compound remaining (Composition, %) ([4]; Water (pH 1.2) (2 h)): 30.4%
- Percentage of the released active drug (prednisolone, dexamethasone, budesonide, apremilast or prucalopride) (Composition, %) ([4]; Water (pH 1.2) (2 h)): 67.2%

SMILES: C[C@]12C=CC(=O)C=C1CC[C@@H]1[C@@H]2[C@@H](O)C[C@@]2(C)[C@H]1CC[C@]2(O)C(=O)CO [Prednisolone, prednisolone]
- colon coefficient on Day 8 after modeling compared with the model control group [1]: not statistically significant
- histopathological score of colon on Day 8 after modeling compared with the model control group [1]: not statistically significant
- body weight change (increase) on Day 8 after modeling as compared to the model group [1]: higher than that for the model group
- Concentration of prednisolone in the content, The first half segment of Small intestine ([3]; 0.5 h): 16.66 ± 2.89 nmol/g
- Concentration of prednisolone in the content, The last half segment of Small intestine ([3]; 0.5 h): 16.27 ± 3.34 nmol/g
- Concentration of prednisolone in the content, The first half segment of Small intestine ([3]; 1 h): 19.20 ± 3.44 nmol/g
- Concentration of prednisolone in the content, The last half segment of Small intestine ([3]; 2 h): 19.81 ± 2.77 nmol/g
- Concentration of prednisolone in the content, The first half segment of Small intestine ([3]; 3 h): 21.16 ± 2.18 nmol/g
- Concentration of prednisolone in the content, The last half segment of Small intestine ([3]; 3 h): 20.47 ± 3.08 nmol/g
- Concentration of prednisolone in the content, The first half segment of Small intestine ([3]; 4 h): 17.38 ± 3.04 nmol/g
- Concentration of prednisolone in the content, The last half segment of Small intestine ([3]; 4 h): 13.27 ± 2.09 nmol/g
- Concentration of prednisolone in the content, The first half segment of Small intestine ([3]; 5 h): 7.34 ± 1.38 nmol/g
- Concentration of prednisolone in the content, The last half segment of Small intestine ([3]; 5 h): 6.94 ± 1.35 nmol/g
- Concentration of prednisolone in the content, The first half segment of Small intestine ([3]; 6 h): 0.36 ± 0.05 nmol/g
- Concentration of prednisolone in the content, The last half segment of Small intestine ([3]; 6 h): 0.32 ± 0.06 nmol/g
- Concentration of prednisolone in the content, The last half segment of Small intestine ([3]; 8 h): 0.04 ± 0.01 nmol/g
- Cmax value of prednisolone in the content, Stomach ([3]; po, 5 mg/kg): 370.53 nmol/g
- Cmax value of prednisolone in the content, The first half segment of Small intestine ([3]; po, 5 mg/kg): 51.92 nmol/g
- Cmax value of prednisolone in the content, The first third segment (including cecum) of Colon ([3]; po, 5 mg/kg): 0.70 nmol/g
- Cmax value of prednisolone in the content, The last half segment of Small intestine ([3]; po, 5 mg/kg): 22.05 nmol/g
- Cmax value of prednisolone in the content, The last two thirds segment of Colon ([3]; po, 5 mg/kg): 0.14 nmol/g
